From US20250134870A1, “PATHWAY MODULATOR, PHARMACEUTICAL COMPOSITION HAVING SAME, USE THEREOF, AND THERAPEUTIC METHOD USING SAME” (Jiangsu Yahong Meditech Co., Ltd., priority 2021, published 2025)

How the values were obtained:
cocaine dependence = settings: used in combination with cocaine; cited from earlier work
[1] = tested on: NMO-IgG-induced neuromyelitis optica; experiment: NMO-IgG-induced neuromyelitis optica (NMO) in mice: AQP4, GFAP, IBA1, CD45 (Example 7); type: in vivo, C57 mice; settings: 50 and 100 mg/kg PO QD × 10 days
Protocol: 1) C57 female mice (6 to 8 weeks old) were anesthetized with intraperitoneal injection of 5% chloral hydrate (70 μL/10 g).
2) Fur of the top of head was removed to expose the scalp. The mouse head was fixed on the brain stereotaxic apparatus, keeping the top of the skull horizontal. The scalp was disinfected with iodophor.
3) The scalp was cut lengthwise for about 0.5 cm to search for the anterior and posterior fontanelle areas. The stereotaxic caliper was rotated to move the needle tip of trace syringe to the anterior and posterior fontanelle areas, and the mouse skull was kept horizontal by observing the distance from Bregma and Lambda to the needle tip. After horizontal adjustment, the needle tip was moved to Bregma and then moved 2 mm to the right to reach the position.
4) The position on the surface of the mouse skull was marked and a hole was drilled at this point with a skull drill. During drilling, blood vessels should be avoided and drilling should be continued carefully to avoid damaging the duramater and brain tissue.
5) The trace syringe was vertically introduced into the mouse brain tissue using the stereotaxic apparatus with a vertical needle depth of 3 mm. The syringe was kept in place and maintained for 5 min.
6) The syringe pump was turned on, the Infuse Only mode was selected, and the solution (2 μL NMO-IgG+3 μL human complement+5 μL PBS/drug, mixed and pipetted well in advance, and placed on ice) was injected at a speed of […].
7) After the injection was completed, the syringe was maintained for 10 min. The syringe was slowly pulled upward by rotating the caliper, and maintained for 5 min after moving 1 mm upward, until the syringe was completely pulled out. The skin was sutured and disinfected again with iodophor.
Dosing started 3 days before model establishment and lasted until 7 days after model establishment, for 10 consecutive days.
On Day 8 after model establishment (i.e., the day after the last dose), the experimental mice were euthanized and brain tissue was collected for frozen sections. Then, the immune response area of astrocyte markers in each group of mice was determined and evaluated (see the reference Ye Gong et al., Journal of Neuroinflammation, 17 (1). doi:10.1186/s12974-020-01874-6 for experimental methods).

[2] = Body weight and weight change rate of EAU rats (Example 6); type: in vivo, Lewis rats
Text: Wherein, Day 0 referred to the day of immunization. The body weight of each rat was monitored twice a week after immunization.
Dosing started from Day 0 accurately according to the animal body weight for a total of 16 days.

[3] = tested on: bleomycin-induced skin fibrosis; experiment: Bleomycin-induced skin fibrosis in mice: skin histopathology (dermal thickness, capillary density score, inflammatory cell infiltration score); type: in vivo, male C57BL/6 mice
Protocol: The skin tissue of the lesioned skin was subjected to dehydration, embedding and sectioning according to the pathology SOP, and the tissue was stained by HE and Masson staining. Histopathological analysis was performed according to the following methods:
Masson-stained sections were panoramically scanned by using Nanozomer S210 and the scanned images were subjected to quantitative analysis using Visiopharm VIS6.0 software. The degree of fibrosis was currently represented by the dermal thickness after Masson staining.
The fields of observation was selected in the dermis layer of the lesioned area (the number of fields selected was determined according to the size of the lesioned area) and scored according to the area occupied by capillaries in the area: • 0: No capillary formed • 1: The proportion of capillaries formed was less than 25%; • 2: The proportion of capillaries formed was 25-50%; • 3: The proportion of capillaries formed was 50-75%; • 4: The proportion of capillaries formed was greater than 75%. 3.8.3 Inflammatory cell infiltration score of dermis layer
The fields of observation was selected in the dermis layer of the lesioned area (the number of fields selected was determined according to the size of the lesioned area) and scored according to the degree of inflammatory cell infiltration: • 0: No inflammatory cell infiltration: • 1: A small amount of focal inflammatory cell infiltration; • 2: Scattered diffuse inflammatory cell infiltration: • 3: A large amount of diffuse inflammatory cell infiltration; • 4: A large amount of agglomerated inflammatory cell infiltration.

[4] = tested on: 2,4-dinitrobenzenesulfonic acid (DNBS)-induced colitis; experiment: DNBS-induced enteritis/colitis in rats: body weight and stool score (Example 10); type: in vivo, Wistar rats; settings: 3, 10 and 30 mg/kg
Protocol: The 90 animals were randomly grouped on Day-1 (i.e., the day before the experiment) based on animal body weight to ensure that the body weight of each group of animals were similar, so as to reduce bias. Rats were fasted for 40 hours before the experiment and were injected subcutaneously with 5% glucose saline (10 mL/kg, once daily) during fasting. • Experimental grouping:
On Day 1 of the experiment, fasting rats were anesthetized by intraperitoneal injection with Zoletil (25 mg/kg Tiletamine and 25 mg/kg Zolazepam) and 5 mg/kg Xylazine.
In groups G2-G6, a hose was inserted from the anus to left colic flexure (about 8 cm from the anus) and colitis was induced by DNBS enema (0.5 mL/animal) in rats. The normal control group (G1) received 30% ethanol enema by the same process. The head of the animal after enema was lowered for 15 min, and then the animal was kept in Trendelenburg position until waked to avoid backflow of the enema fluid.
The percentage of body weight was calculated according to the following formula: (body weight on Day X-initial weight)/initial weight]×100%.
(2) Stool score: during the experiment, the stool state of rats was scored daily (0=normal, 1=wet/sticky, 2=loose, 3=liquid).

[5] = 50 and 100 mg/kg PO QD, 28 days (Test groups 2#, 3#)

Compound: NCc1c[nH]c(=S)n1[C@H]1CCc2c(F)cc(F)cc2C1 [Nepicastat]
- positive effects of cocaine (cocaine dependence): inhibit the positive effects of cocaine
- effect on NMO-IgG-induced neuromyelitis optica in mice [1]: certain inhibitory effect
- immune parameter CD45 [1]: no significant effect
- immune parameter IBA1 [1]: no significant effect
- lesion ratio of AQP4 ([1]; vs control group): significantly reduce the lesion ratio
- lesion ratio of GFAP ([1]; vs control group): significantly reduce the lesion ratio
- Rat body weight ([2]; Day 2, 25 mg/kg PO QD): 193.95 g
- Weight change rate (%) ([2]; Day 2, 25 mg/kg PO QD): 3.25%
- Rat body weight ([2]; Day 2, 50 mg/kg PO QD): 194.04 g
- Weight change rate (%) ([2]; Day 2, 50 mg/kg PO QD): 2.53%
- Rat body weight ([2]; Day 2, 100 mg/kg PO QD): 194.02 g
- Weight change rate (%) ([2]; Day 2, 100 mg/kg PO QD): 2.11%
- Rat body weight ([2]; Day 6, 25 mg/kg PO QD): 204.67 g
- Weight change rate (%) ([2]; Day 6, 25 mg/kg PO QD): 7.06%
- Rat body weight ([2]; Day 6, 50 mg/kg PO QD): 202.28 g
- Weight change rate (%) ([2]; Day 6, 50 mg/kg PO QD): 6.90%
- Rat body weight ([2]; Day 6, 100 mg/kg PO QD): 205.97 g
- Weight change rate (%) ([2]; Day 6, 100 mg/kg PO QD): 8.45%
- Rat body weight ([2]; Day 9, 25 mg/kg PO QD): 207.81 g
- Weight change rate (%) ([2]; Day 9, 25 mg/kg PO QD): 9.26%
- Rat body weight ([2]; Day 9, 50 mg/kg PO QD): 206.07 g
- Weight change rate (%) ([2]; Day 9, 50 mg/kg PO QD): 8.83%
- Rat body weight ([2]; Day 9, 100 mg/kg PO QD): 214.36 g
- Weight change rate (%) ([2]; Day 9, 100 mg/kg PO QD): 12.84%
- Rat body weight ([2]; Day 13, 25 mg/kg PO QD): 214.28 g
- Weight change rate (%) ([2]; Day 13, 25 mg/kg PO QD): 12.23%
- Rat body weight ([2]; Day 13, 50 mg/kg PO QD): 216.20 g
- Weight change rate (%) ([2]; Day 13, 50 mg/kg PO QD): 14.24%
- Rat body weight ([2]; Day 13, 100 mg/kg PO QD): 223.98 g
- Weight change rate (%) ([2]; Day 13, 100 mg/kg PO QD): 17.96%
- Rat body weight ([2]; Day 16, 25 mg/kg PO QD): 219.00 g
- Weight change rate (%) ([2]; Day 16, 25 mg/kg PO QD): 12.36%
- Rat body weight ([2]; Day 16, 50 mg/kg PO QD): 218.42 g
- Weight change rate (%) ([2]; Day 16, 50 mg/kg PO QD): 15.41%
- Rat body weight ([2]; Day 16, 100 mg/kg PO QD): 227.40 g
- Weight change rate (%) ([2]; Day 16, 100 mg/kg PO QD): 19.77%
- Rat body weight ([2]; Day −1, 25 mg/kg PO QD): 188.31 g
- Weight change rate (%) ([2]; Day −1, 25 mg/kg PO QD): 0.00%
- Rat body weight ([2]; Day −1, 50 mg/kg PO QD): 189.34 g
- Weight change rate (%) ([2]; Day −1, 50 mg/kg PO QD): 0.00%
- Rat body weight ([2]; Day −1, 100 mg/kg PO QD): 189.92 g
- Weight change rate (%) ([2]; Day −1, 100 mg/kg PO QD): 0.00%
- degree of fibrosis of the lesioned skin ([3]; 100 mg/kg PO QD, 28 days (Test group 3#)): reduce the degree of fibrosis of the lesioned skin
- effect to reduce dermal thickness ([3]; 25, 50 and 100 mg/kg PO QD, 28 days): dose-dependent, and the higher the dose, the more obvious the result, but there was no significant difference compared with the model group
- inflammatory cell infiltration of the lesioned skin [3, 5]: significantly reduce
- subdermal capillary hyperplasia [3, 5]: significantly reduce
- effects on DNBS-induced colitis in rats [4]: certain prophylactic and therapeutic effects
